Data taken from PMC10610214 (Pharmaceuticals, 2023).
Where “and” joins values, the source holds several entries; their conditions need not be identical. Equal entries are not always repeated.

What was measured:
AChE = target: T1, AChE (Electrophorus electricus, UniProt O42275); assay: Kinetic study of AChE inhibition (Lineweaver–Burk); format: biochemical
T1 construct: AChE (from electric eel); purchased Sigma Chemical Company (St. Louis, MO, USA)
Description: The specific steps are similar to those described in Section 4.3 for the enzyme inhibition assay. In brief, 100 μL of different concentrations of 4h (0, 0.075, 0.15, and 0.3 μM)/4h (0, 3, 6, and 12 μM) and 100 μL of different concentrations of AChE/BuChE (1, 0.5, 0.25, 0.125, and 0.0625 U/mL) were added into 48-well plates and then co-incubated at 37 °C for 30 min. After the end of incubation, 100 μL of ATCI/BTCI (0.35 mM), 100 μL of PB solution, and 100 μL DTNB (0.35 mM) were added, and then changes in absorbance were measured at different times at 412 nm by multifunctional microplate reader, and the catalytic reaction rate of AChE/BuChE was determined. All concentrations are final. With the enzyme reaction rate V as the ordinate and AChE/BuChE concentration as the abscissa, the curve was drawn to determine the reversibility of the compound to AChE/BuChE.
In order to determination of inhibition types and the constant of AChE/BuChE, the concentration of AChE/BuChE (0.5 U/mL) in the reaction system was fixed. Five different substrate concentrations and four different concentrations of test compound 4h were used to measure the absorbance changes at different times at 412 nm. The reciprocal of the enzymatic reaction rate (1/V) was taken as the ordinate, and the reciprocal of the substrate ATCI/BTCI concentration (1/S) was taken as the abscissa.
[…]. […]

PC12 cells = assay: Cytotoxicity in PC12 cells (MTT); format: cell-based
Description: The cytotoxicity and neuroprotective effects of the compounds on PC12 cells were evaluated by MTT assay. PC12 cells were seeded into a 96-well plate at a density of 5.0 × 10^3 cells per well. After the cells were incubated overnight, the old medium was discarded. The cells were incubated for another 24 h with fresh medium containing compounds at a concentration of 30 or 50 μM. A total of 20 μL of MTT solution (5 mg/mL, Sigma-Aldrich, Shanghai, China) was then added per well, and the cells were incubated for an additional 4 h. Afterwards, the supernatant was removed and 150 μL of DMSO was added to solubilize formazan crystals. The 96-well plate was placed on the shaker for 10–15 min, and then the absorbance at 492 nm was measured by a microplate reader.

IL-1β in BV2 cells = assay: IL-1β secretion in LPS-stimulated BV2 cells (ELISA); format: cell-based; details: Mus musculus, BV-2, 24 h, read-out: IL-1β inhibition IC50
Description: The cytotoxicity of compounds on BV2 cells were evaluated by MTT assay and similar to those described in Section 2.5. The NO concentrations in medium were determined using Griess Reagent assay (Beyotime) in accordance with a previously reported method. Nitrite is reduced to nitrogen oxide using Griess Reagent I. Nitrogen oxide then reacts with Griess Reagent II forming a stable product that can be detected by its absorbance at […]. The two-step assay is simple, fast, and can detect nitrite levels as low as 1 nmol/well. BV2 cells were seeded into a 48-well plate at a density of 6.0 × 10^4 cells per well. After the cells were incubated overnight, the old medium was discarded. Then, the cells were pretreated with various concentrations (10, 5, 1, 0.5, and 0.1 μM) of compounds for 1 h and then co-incubated with LPS (1 μg/mL, 30 μL/well) for 24 h. After 24 h, the cell supernatant (50 μL/well) was placed into a new 96-well plate for experiment. […] The absorbance at […] was measured by a microplate reader.
The contents of TNF-α and IL-β in the cell supernatant were measured via ELISA (Jyimei, Wuhan, China) following the manufacturer’s instructions.

DPPH radical scavenging = format: physicochemical; details: vs no-compound group
Description: DPPH is a commercially available stable organic nitrogen radical with maximum UV absorption at 515 nm. After reduction, the color of the solution fades (absorbance decreases). Therefore, this method was used to evaluate the antioxidant capacity of the compounds. In short, 50 μL of DPPH (140 μM) and 50 μL of different concentrations (10, 100, and 1000 μM) of compound 4h were added together in a 96-well plate and then incubated in the dark at 37 °C for 2 h. The absorbance was measured at 515 nm through the multifunctional microplate reader. The scavenging rate (SR) of DPPH radicals was calculated by the following formula: SR = (1 − Ac/A0) × 100%, where “Ac” is the absorbance of DPPH and the compound solution incubating, and “A0” is the absorbance of the DPPH radical-ethanol solution alone. The experimental results are expressed as the average of three tests.

T1 sequence (O42275 24-633): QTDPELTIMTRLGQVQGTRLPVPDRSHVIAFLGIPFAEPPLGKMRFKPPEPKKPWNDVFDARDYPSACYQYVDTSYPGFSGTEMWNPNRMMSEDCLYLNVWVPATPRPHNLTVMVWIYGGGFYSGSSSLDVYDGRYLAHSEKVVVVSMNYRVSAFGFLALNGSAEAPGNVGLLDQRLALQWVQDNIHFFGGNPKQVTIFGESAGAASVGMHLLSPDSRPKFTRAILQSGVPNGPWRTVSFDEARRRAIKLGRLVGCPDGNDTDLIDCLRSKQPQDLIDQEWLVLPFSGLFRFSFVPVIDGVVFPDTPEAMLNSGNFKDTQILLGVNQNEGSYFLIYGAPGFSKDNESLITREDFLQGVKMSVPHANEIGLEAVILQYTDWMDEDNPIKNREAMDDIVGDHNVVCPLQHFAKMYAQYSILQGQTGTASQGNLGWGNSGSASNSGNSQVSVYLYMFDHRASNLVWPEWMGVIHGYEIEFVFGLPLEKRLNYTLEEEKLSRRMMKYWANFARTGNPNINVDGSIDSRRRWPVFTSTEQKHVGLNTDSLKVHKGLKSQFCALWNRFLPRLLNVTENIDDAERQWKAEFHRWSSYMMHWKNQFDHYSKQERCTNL

**Q.** With `O=C1c2cc(NS(=O)(=O)c3ccccc3F)ccc2-n2c1nc1ccccc1c2=O` [4h] as the molecule, how does the AChE inhibition type (AChE; Lineweaver–Burk double-reciprocal plot) read?
**A.** mixed-type inhibition

**Q.** And the Ki (AChE; Lineweaver–Burk secondary plot)?
**A.** 83.1 nM

**Q.** What about the “Cell Viability (% of Control)” value (PC12 cells; compound 30 μM, 30 µM) of the same molecule?
**A.** 99.62 ± 0.94 % of Control and 99.6 ± 0.9 % of Control

**Q.** What about the “Cell Viability (% of Control)” value (PC12 cells; compound 50 μM, 50 µM) of the same molecule?
**A.** 99.21 ± 1.57 % of Control and 99.2 ± 1.5 % of Control

**Q.** What about the IC50 (IL-1β in BV2 cells) of the same molecule?
**A.** 1780 ± 210 nM

**Q.** And the “Concentration of DPPH (%)” value (DPPH radical scavenging; 10 μM compound)?
**A.** 84.76 ± 4.21% and 84.76%

**Q.** And the “Concentration of DPPH (%)” value (DPPH radical scavenging; 100 μM compound)?
**A.** 74.6 ± 2.51%

**Q.** And the “Concentration of DPPH (%)” value (DPPH radical scavenging; 1000 μM compound)?
**A.** 36.51 ± 2.78% and 36.51%
